Values of other authors in patent publication US8440245B2, “Methods for making nutritional compositions comprising curcuminoids” (priority 2009, dated 2013).

Experiments:
[1] = percentage of ingested curcuminoid actually metabolized by the body
microtubule assembly = conditions: @ 40 μm

Row | Compound | Metabolic Recovery [1] [%] | Inhibition of Microtubule Assembly (microtubule assembly) [% @]
1 | O=C(/C=C/c1ccc(O)cc1)CC(=O)/C=C/c1ccc(O)cc1 [BDMC, bisdemethoxycurcumin] | ~75 | –
2 | COc1cc(/C=C/C(=O)CC(=O)/C=C/c2ccc(O)c(OC)c2)ccc1O [Curcumin, curcumin] | – | 50
3 | COc1cc(/C=C/C(O)=C/C(=O)/C=C/c2ccc(O)cc2)ccc1O [DMC, demethoxycurcumin] | ~50 | –
